pEC50: −log10 of the molar value. Like-named read-outs stand apart in the source and are kept apart here.
Experiments:
[1] = target: T1, hSERT (Homo sapiens, UniProt P31645); experiment: Serotonin (5-HT) uptake assay in JAR cells; type: cell-based; conditions: for hSERT % specific 5-HT uptake: at 1 μM
T1 construct: cells were stimulated with staurosporine (40 nM) to increase the expression of the 5-HT transporter; host or cells: JAR (human placental choriocarcinoma)
Description: (§1) Cells were plated at 300,000/T75 flask and cells were split twice weekly. […] Cells were plated at 250,000 cells/T75 flask and split twice weekly.
The methods for 5-HT functional reuptake using the JAR cell line were modified using a previous literature report. […] On day 2, cells were stimulated with staurosporine (40 nM) to increase the expression of the 5-HT transporter. On day 3, cells were removed from the cell incubator two hours prior to assay and maintained at room temperature to equilibrate the growth medium to ambient oxygen concentration. Subsequently, the growth medium was replaced with 200 μl of assay buffer (25 mM HEPES; 120 mM NaCl; 5 mM KCl; 2.5 mM CaCl2; 1.2 mM MgSO4; 2 mg/ml glucose (pH 7.4, 37° C.)) containing 0.2 mg/ml ascorbic acid and 10 μM pargyline. […] Data from these wells were used to define non-specific 5-HT uptake (minimum 5-HT uptake). Test compounds were prepared in DMSO (10 mM) and diluted in assay buffer according to test range (1 to 1,000 nM). Twenty-five microliters of assay buffer (maximum 5-HT uptake) or test compound were added directly to triplicate wells containing cells in 200 μl of assay buffer. The cells were incubated with the compound for 10 minutes (37° C.). […] The cells were incubated with the reaction mixture for 5 minutes at 37° C. The 5-HT uptake reaction was terminated by decanting the assay buffer. The cells were washed twice with 200 μl assay buffer (37° C.) to remove free radioligand. The plates were inverted and left to dry for 2 minutes, then reinverted and air-dried for an additional 10 minutes. Subsequently, the cells were lysed in 25 μl of 0.25 N NaOH (4° C.) then placed on a shaker table and shaken vigorously for 5 minutes. After cell lysis, 75 μl of scintillation cocktail was added to the wells, the plates were sealed with film tape and replaced on the shake table for a minimum of 10 minutes. The plates were counted in a Wallac Microbeta counter (PerkinElmer) to collect the raw cpm data.
(§2) For each experiment, a data stream of cpm values collected from the Wallac Microbeta counter was downloaded to a Microsoft Excel statistical application program. Determination of percent specific NE uptake (% SB) at 1 μM are calculated using a Microsoft Excel spread sheet applying the following formula: [% SB of NE reuptake (% SB)=[(1−(mean cpm control wells−each cpm drug well)/(mean cpm control wells−mean cpm non-specific wells))×100]. Calculations of EC50 values were made using the transformed-both-sides logistic dose response program written by Wyeth Biometrics Department.

[2] = test system: naloxone-induced flush in morphine-dependent ovariectomized rats; experiment: Morphine-dependent rat model of hot flush (naloxone-induced flush, MD model); conditions: for changes in TST over time, effect on naloxone-induced flush: various doses; for ED50 value, abatement of naloxone-induced flush / effect on naloxone-induced flush at maximal flush / effect on naloxone-induced flush at maximal flush (dose response): 1 hour prior to naloxone; for ED50 value, abatement of naloxone-induced flush: maximal flush 15 minutes post-naloxone; for effect on naloxone-induced flush at maximal flush: 30 mg/kg intraperitoneally; for effect on naloxone-induced flush at maximal flush (dose response): 15 minutes post-naloxone; for ED50: Rattus norvegicus, read-out: ED50 value, abatement of naloxone-induced flush
Description: (§3) Dosing: All doses were prepared based on mg/kg.
(§4) Animals: Ovariectomized Sprague-Dawley rats (180-220 g) were obtained from a commercial vendor (Taconic, Germantown, N.Y.) and individually housed under 12 hours light/dark cycle in a room maintained at 25° C. Animals were provided with standard rat chow and water ad libitum.
Morphine-dependent model: Ovariectomized rats were injected once daily for 8-9 days with vehicle to minimize stress responses and then administered compound(s) on test day. On day 4 of dosing, morphine dependence was induced by sc implantation of two slow-release morphine pellets (75 mg/pellet) in the dorsal scapular region. […] Four to six days after implantation, morphine withdrawal was induced with an opioid antagonist (naloxone) that causes a transient increase in TST. […] Rats were mildly sedated with ketamine and a thermistor connected to a MacLab data acquisition system was taped to the base of the tail. Tail skin temperature was then monitored continuously for 35 minutes to establish a baseline temperature. Naloxone was subsequently administered and TST was measured for an additional 35 to 60 minutes (total recording time 70 to 95 minutes).
Statistical analysis: To analyze changes in TST induced by naloxone in morphine-dependent rats, all data were analyzed using a two factor repeated measure ANOVA for “treatment” and “time.” The model was fit to test whether there were significant differences in the responses between treatment groups. Naloxone administration is designated as time zero and data is then analyzed at 5 minute intervals. The first three readings were averaged and used as baseline TST scores. All data were analyzed as ΔTST (TST for each time point-baseline). Multiple comparisons (LSD p-values) among the treatment groups at each time point were used for the analysis. Efficacy of hot flush abatement was determined by evaluating statistical differences at the peak response time of 15 minutes post-nalbxone, when the maximal change in TST is observed. A customized SAS-excel (SAS Institute, Cary, N.C.) application was used applying a four parameter logistic model to determine ED50 values. A logistic dose transformation was performed on ΔTST. Maximum flush (ΔTST at 15 minutes post-naloxone) was used in the analysis and the minimum was locked at zero. […] Statisticians in the Biometrics Department (Wyeth Research, Collegeville, Pa.) developed a customized JMP application.

[3] = target: T2, human hNET (Homo sapiens, UniProt P23975); experiment: Norepinephrine (NE) uptake assay in MDCK-Net6 cells; type: cell-based; conditions: for hNET % Specific NE uptake: at 1 μM
T2 construct: expressed in transfected cells
Description: as §1
On day 1, cells were plated at 3,000 cells/well in growth medium and maintained in a cell incubator (37° C., 5% CO2). On day 2, growth medium was replaced with 200 μl of assay buffer (25 mM HEPES; 120 mM NaCl; 5 mM KCl; 2.5 mM CaCl2; 1.2 mM MgSO4; 2 mg/ml glucose (pH 7.4, 37° C.)) containing 0.2 mg/ml ascorbic acid and 10 μM pargyline. Plates containing cells with 200 μl of assay buffer were equilibrated for 10 minutes at 37° C. prior to addition of compounds. […] Data from these wells were used to define non-specific NE uptake (minimum NE uptake). Test compounds were prepared in DMSO (10 mM) and diluted in assay buffer according to test range (1 to 10,000 nM). Twenty-five microliters of assay buffer (maximum NE uptake) or test compound were added directly to triplicate wells containing cells in 200 μl of assay buffer. The cells in assay buffer with test compounds were incubated for 20 minutes at 37° C. […] The reaction was terminated by decanting the supernatant from the plate. The plates containing cells were washed twice with 200 μl assay buffer (37° C.) to remove free radioligand. The plates were then inverted, left to dry for 2 minutes, then reinverted and air dried for an additional 10 minutes. The cells were lysed in 25 μl of 0.25 N NaOH solution (4° C.), placed on a shake table and vigorously shaken for 5 minutes. After cell lysis, 75 μl of scintillation cocktail was added to each well and the plates were sealed with film tape. The plates were returned to the shake table and vigorously shaken for a minimum of 10 minutes to ensure adequate partitioning of organic and aqueous solutions. The plates were counted in a Wallac Microbeta counter (PerkinElmer) to collect the raw cpm data.
as §2

[4] = test system: tail skin temperature of ovariectomized rats; experiment: OVX-induced thermoregulatory dysfunction telemetry model
Description: as §3, §4
A temperature and physical activity transmitter (PhysioTel TA10TA-F40, Data Sciences International) was implanted subcutaneously in the dorsal scapular region and the tip of the temperature probe was tunneled subcutaneously 2.5 cm beyond the base of the tail. After a 7-day recovery period, TST readings were continuously recorded for the remainder of the study. Tail skin temperature readings were collected from each animal every 5 minutes with values obtained over a 10 second sampling period. The day before test day, an average baseline TST value was calculated for each animal by averaging temperature readings recorded during the 12 hours active (dark) phase. In these studies, animals were dosed approximately 1 hour prior to the onset of dark cycle.
Evaluation of a compound's ability to restore normal lowering of TST in the telemetry model was analyzed using hourly TST values calculated for each animal by averaging the 12 temperature readings obtained every 5 minutes over that recording time. To analyze ΔTST in the telemetry model, a two factors repeated measure ANOVA was performed. The model used for analysis was ΔTST=GRP (group)+HR (hours)+GRP*HR+BASELINE. Thus, the reported least squares means are the expected mean values as if both groups had the same baseline value. Post-hoc tests of hourly GRP*HR samples are t-tests of the difference between groups for each hour. To be conservative, a result was not considered significant unless the p-value was <0.025. All analyses were performed using SAS PROC MIXED (SAS, Carey, N.C.).

[5] = [3H]5-HT uptake, JAR cells, read-out: hSERT EC50

T2 sequence (P23975 whole entry): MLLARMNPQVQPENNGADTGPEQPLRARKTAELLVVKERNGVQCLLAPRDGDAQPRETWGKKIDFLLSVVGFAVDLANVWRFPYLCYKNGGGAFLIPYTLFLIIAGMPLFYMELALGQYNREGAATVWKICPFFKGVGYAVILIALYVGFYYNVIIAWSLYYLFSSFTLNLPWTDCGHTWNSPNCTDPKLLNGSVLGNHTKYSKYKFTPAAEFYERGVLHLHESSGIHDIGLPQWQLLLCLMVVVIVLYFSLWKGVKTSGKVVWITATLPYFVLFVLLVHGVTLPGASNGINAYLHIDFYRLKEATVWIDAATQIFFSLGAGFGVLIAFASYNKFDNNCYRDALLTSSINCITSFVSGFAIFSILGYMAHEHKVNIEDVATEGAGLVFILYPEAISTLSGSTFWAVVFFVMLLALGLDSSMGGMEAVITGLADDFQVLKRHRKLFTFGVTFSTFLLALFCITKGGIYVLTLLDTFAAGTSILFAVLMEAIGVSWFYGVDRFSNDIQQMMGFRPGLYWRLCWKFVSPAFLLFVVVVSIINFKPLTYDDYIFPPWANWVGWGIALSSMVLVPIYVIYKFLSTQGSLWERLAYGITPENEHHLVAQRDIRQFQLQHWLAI
T1 sequence (P31645 whole entry): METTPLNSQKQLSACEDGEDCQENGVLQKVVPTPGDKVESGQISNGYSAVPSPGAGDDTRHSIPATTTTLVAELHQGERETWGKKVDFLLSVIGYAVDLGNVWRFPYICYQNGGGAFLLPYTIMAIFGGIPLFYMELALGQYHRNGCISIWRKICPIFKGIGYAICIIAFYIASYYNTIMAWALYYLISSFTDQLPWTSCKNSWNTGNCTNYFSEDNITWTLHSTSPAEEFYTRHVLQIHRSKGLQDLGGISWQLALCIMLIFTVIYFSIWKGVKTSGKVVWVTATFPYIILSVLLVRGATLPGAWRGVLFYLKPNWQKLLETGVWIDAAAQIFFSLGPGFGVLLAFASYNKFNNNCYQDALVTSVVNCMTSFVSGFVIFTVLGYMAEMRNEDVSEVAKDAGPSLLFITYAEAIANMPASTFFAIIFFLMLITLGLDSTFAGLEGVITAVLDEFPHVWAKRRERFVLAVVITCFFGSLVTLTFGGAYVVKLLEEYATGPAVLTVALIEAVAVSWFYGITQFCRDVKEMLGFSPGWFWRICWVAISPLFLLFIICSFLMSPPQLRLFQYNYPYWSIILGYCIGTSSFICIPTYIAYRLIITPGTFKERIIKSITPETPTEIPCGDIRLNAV

In the case of `CN1CCN(CC(c2cccc(Cl)c2)C2(O)CCCCC2)CC1` (racemic) [1-[1-(3-chlorophenyl)-2-(4-methyl-1-piperazinyl)ethyl]cyclohexanol], the pEC50 [1, 5] was 4.81, the “changes in TST over time, effect on naloxone-induced flush” value ([2]; sc) was “dose-dependently abate the naloxone-induced flush” and the pEC50 [3] was 7.26.
With `CN(C)C[C@@H](c1ccc(O)cc1)C1(O)CCCCC1` (single isomer, unassigned) [R-ODV, R-enantiomer of O-desmethylvenlafaxine] the “ED50 value, abatement of naloxone-induced flush” value (shortened to “ED50 value, abatement”) ([2]; sc) was 14.4+13 mg/kg.
In the case of `COc1ccc([C@H](CN(C)C)C2(O)CCCCC2)cc1` (single isomer, unassigned) [R-venlafaxine, R-enantiomer of venlafaxine], the “ED50 value, abatement” value ([2]; sc) was 8.3+3 mg/kg.
With `CN(C)C[C@H](c1ccc(O)cc1)C1(O)CCCCC1` (single isomer, unassigned) [S-ODV, S-enantiomer of ODV] the “ED50 value, abatement” value ([2]; sc) was 13.3+8 mg/kg.
For `COc1ccc([C@@H](CN(C)C)C2(O)CCCCC2)cc1` (single isomer, unassigned) [S-venlafaxine, S-enantiomer of venlafaxine], the “ED50 value, abatement” value ([2]; sc) was 10.9+3 mg/kg.
`OC1(C(CN2CCN(c3cccc(Cl)c3)CC2)c2cccc(Cl)c2)CCCCC1` (stereo not drawn) [1-[1-(3-chlorophenyl)-2-[4-(3-chlorophenyl)-1-piperazinyl]ethyl]cyclohexanol] was tested, and the “hSERT % specific 5-HT uptake” value [1] was 72% and the “hNET % Specific NE uptake” value [3] was 23%.
In the case of `CN1CCN(CC(c2cccc(F)c2)C2(O)CCCCC2)CC1` (stereo not drawn) [1-[1-(3-fluorophenyl)-2-(4-methyl-1-piperazinyl)ethyl]cyclohexanol], the “hSERT EC50” value ([1]; [3H]5-HT uptake, JAR cells) was “Inactive at 1 μm” and the pEC50 [3] was 6.62.
With `COc1cccc(C(CN2CCN(c3cccc(C(F)(F)F)c3)CC2)C2(O)CCCCC2)c1` (stereo not drawn) [1-[1-(3-methoxyphenyl)-2-[4-[3-(trifluoromethyl)-phenyl]-1-piperazinyl]ethyl]cyclohexanol] the “hSERT % specific 5-HT uptake” value [1] was 87% and the “hNET % Specific NE uptake” value [3] was 38%.
In the case of `COc1cccc(C(CN2CCN(c3cccc(C(F)(F)F)c3)CC2)C2(O)CCCC2)c1` (stereo not drawn) [1-[1-(3-methoxyphenyl)-2-[4-[3-(trifluoromethyl)-phenyl]-1-piperazinyl]ethyl]cyclopentanol], the “hSERT % specific 5-HT uptake” value [1] was 82% and the “hNET % Specific NE uptake” value [3] was 57%.
With `COc1cccc(C(CN2CCN(Cc3ccccc3)CC2)C2(O)CCCCC2)c1` (stereo not drawn) [1-[1-(3-methoxyphenyl)-2-[4-phenylmethyl)-1-piperazinyl]ethyl]cyclohexanol] the “hSERT % specific 5-HT uptake” value [1] was 49% and the “hNET % Specific NE uptake” value [3] was 43%.
In the case of `OC1(C(CN2CCN(Cc3ccccc3)CC2)c2ccc(F)cc2)CCCCC1` (stereo not drawn) [1-[1-(4-fluorophenyl)-2-[4-(phenylmethyl)-1-piperazinyl]ethyl]cyclohexanol], the “hSERT % specific 5-HT uptake” value [1] was 88% and the “hNET % Specific NE uptake” value [3] was 53%.
For `COc1ccc(C(CN2CCN(C)CC2)C2(O)CCCCC2)cc1` (stereo not drawn) [1-[1-(4-methoxyphenyl)-2-[4-methyl-1-piperazinyl)ethyl]cyclohexanol], the “hSERT % specific 5-HT uptake” value [1] was 79% and the “hNET % Specific NE uptake” value [3] was 65%.
In the case of `COc1cccc(C(CN2CCN(c3cccc(Cl)c3)CC2)C2(O)CCCCC2)c1` (stereo not drawn) [1-[2-(3-chlorophenyl)1-piperazinyl]-1-[3-methoxyphenyl)ethyl]cyclohexanol], the “hSERT % specific 5-HT uptake” value [1] was 67% and the “hNET % Specific NE uptake” value [3] was 64%.
`CN1CCN(CC(c2cccc(C(F)(F)F)c2)C2(O)CCCCC2)CC1` (stereo not drawn) [1-[2-(4-methyl-1-piperazinyl)-1-[3-(trifluoromethyl)-phenyl]ethyl]cyclohexanol] was tested, and the pEC50 [1, 5] was 4.47 and the pEC50 [3] was 7.06.
For `COc1cccc(C(CN2CCN(c3cncc(Cl)n3)CC2)C2(O)CCCCC2)c1` (stereo not drawn) [1-[2-[4-(6-chloro-2-pyrazinyl)-1-piperazinyl]-1-[3-methoxyphenyl)ethyl]cyclohexanol], the “hSERT % specific 5-HT uptake” value [1] was 58% and the “hNET % Specific NE uptake” value [3] was 59%.
With `OC1(C(CN2CCN(Cc3ccccc3)CC2)c2cccc(C(F)(F)F)c2)CCCCC1` (stereo not drawn) [1-[2-[4-(phenylmethyl)]-1-piperazinyl]-1-[3-(trifluoromethyl)phenyl]ethyl]cyclohexanol] the “hSERT % specific 5-HT uptake” value [1] was 94% and the “hNET % Specific NE uptake” value [3] was 19%.
For `CN(C)CC(c1ccc(O)cc1)C1(O)CCCCC1` (stereo not drawn) [DVS-233, O-desmethyl-venlafaxine], the “changes in TST over time” value ([4]; 60 mg/kg sc) was “significantly and transiently decreases TST during the active phase”.
With `CN(C)CC(c1cccc(Cl)c1)C1(O)CCCCC1` (stereo not drawn) [WY-781] the “effect on naloxone-induced flush at maximal flush” value [2] was “abated the naloxone-induced flush”.
For `CN(C)CC(c1cccc(C(F)(F)F)c1)C1(O)CCCCC1` (stereo not drawn) [WY-867], the “effect on naloxone-induced flush at maximal flush” value [2] was “abated the naloxone-induced flush”.
`CCC1(c2cnc[nH]2)Cc2ccccc2C1` [atipamezole] was tested, and the “changes in TST after naloxone, alone” value ([2]; 0.3 mg/kg sc, 55 minutes prior to naloxone) was “not significantly different from vehicle treated rats”.
In the case of `CNCCCN1c2ccccc2CCc2ccccc21` [desipramine], the “changes in TST over time” value ([4]; 10 mg/kg sc) was “significantly decreases TST over the entire length of the active phase”, the “abatement of naloxone-induced flush, alone” value ([2]; 1 mg/kg sc, 40 minutes prior to naloxone) was “approximately 50%” and the hot flush abatement ([2]; 3 mg/kg desipramine co-administered with 10 mg/kg SRI) was 100%. The “abatement of naloxone-induced hot flush” value ([2]; 10 mg/kg sc) was 90.4%, the “abatement of naloxone-induced hot flush” value ([2]; 30 mg/kg sc) was 96.7% and the “ED50 value of desipramine in the presence of fluoxetine” value ([2]; co-administered fluoxetine 10 mg/kg sc) was “did not change”. For the same molecule, the “abatement of naloxone-induced flush in combination with atipamezole” value ([2]; desipramine 1 mg/kg with atipamezole 0.3 mg/kg, sc) was “additive effect”, the “abatement of naloxone-induced hot flush when SRI co-administered” value ([2]; desipramine 10 mg/kg with fluoxetine 10 mg/kg) was “significantly enhanced abatement of naloxone-induced hot flush” and the “reduction of TST compared to vehicle treated rats” value ([2]; low dose, naloxone-induced hot flush) was 50%. For the same molecule, the “effect on naloxone-induced flush at maximal flush (dose response)” value ([2]; sc) was “dose-dependently abates the naloxone-induced flush”.
With `CNCCC(Oc1ccc(C(F)(F)F)cc1)c1ccccc1` (stereo not drawn) [fluoxetine] the “effect on naloxone-induced flush, alone” value ([2]; fluoxetine 10 mg/kg sc) was “did not abate the naloxone-induced flush”.
In the case of `CNCCC(Oc1ccccc1OC)c1ccccc1` (stereo not drawn) [nisoxetine, reference compound], the pEC50 [1] was 6.56.
For `Fc1ccc([C@@H]2CCNC[C@H]2COc2ccc3c(c2)OCO3)cc1` [paroxetine], the ED50 ([2]; sc) was 22.3 mg/kg.
For `CCOc1ccccc1OC(c1ccccc1)C1CNCCO1` (stereo not drawn) [reboxetine], the “effect on naloxone-induced flush at maximal flush (dose response)” value ([2]; sc) was “dose-dependently abates the naloxone-induced flush” and the “changes in TST over time, effect on naloxone-induced flush” value ([2]; sc) was “dose-dependently abate the naloxone-induced flush”.
With `COc1ccc(C(CN(C)C)C2(O)CCCCC2)cc1` (stereo not drawn) [venlafaxine] the “changes in TST over time” value ([4]; 15 mg/kg sc) was “significantly and transiently decreased TST during the active phase”, the ED50 ([2]; sc) was 15 mg/kg and the “effect on elevated naloxone-dependent hot flush induced by atipamezole” value ([2]; adrenergic α2 receptor antagonist atipamezole given) was “able to alleviate”.
